The source of these data is patent publication US11857532B2, “Treatment and prediction of therapeutic responses in patients suffering from Friedreich ataxia” (INSERM (Institut National de la Santé et de la Recherche …, priority 2018, dated 2024).

What all share (type): cell-based, human
Assay [1] deals with TfR1. Kind of assay: TfR1 palmitoylation assay in cultured skin fibroblasts. On the procedure: (§1) Skin fibroblasts were grown in Dulbecco's Modified Eagle Medium (DMEM, Life technologies) medium supplemented with 10% fetal bovine serum (FBS), 2 mM L-glutamine, 2.5 mM pyruvate, 100 μg/ml streptomycin, 100 U/ml penicillin at 37° C. For treatment with ferric ammonium citrate (FAC), 80% confluent cells were incubated for 72 h with or without 100 μM FAC in serum-free DMEM (i.e. Tf free). For drug treatment, 80% confluent cells were incubated in DMEM+10% FBS supplemented with 25 μM artesunate (Sigma) in DMSO for 48 h, 25 μM CoA (Sigma) for 72 h and 5 mM DCA (Sigma) for 72 h.
TfR1 palmitoylation in cultured skin fibroblasts was modified from (Ba et al., 2012). Briefly, cells were lysed on ice in a DTT-free cell lysis buffer and endogenous TfR1 was immunoprecipitated overnight with mouse anti-TfR1 antibody (Life Technologies, 136890) with protein G magnetic beads (BioRad). After washing with PBS, beads were successively incubated 2 h with 50 mM N-ethylmaleimide (NEM) at room temperature, 1 M hydroxylamine and 50 mM HPDP-Biotin (Thermo) in dark for 2 hours. Samples were run in 12% acrylamide gel and biotin-labeled TfR1 level was determined by immunoblotting in non-reducing conditions using Chemidoc technology thanks to a CCD camera (BioRad) and ImageLab software v3.0 (BioRad).

Assay [2] deals with membrane-bound TfR1. The experiment in a line: Imaging flow cytometry (Imagestream) of membrane-bound TfR1 in fibroblasts. On the procedure:
as §1
Fibroblasts were starved for one hour in FBS-free DMEM medium (i.e. Tf-free), treated with 5 mM EDTA for harvesting them without disrupting TfR1 located at cell surface, as trypsin does, and then labelled with anti-TfR1 antibody at 4° C. to avoid TfR1 internalization. In this condition only membrane-bound TfR1 is quantified. Cell sorting was based on Hoechst-positive signal, allowing to select living cells.
(§2) Total iron contents were measured using a ferrozine-based iron assay modified from (Barbeito et al., 2010). For imaging flow cytometry, fibroblasts were starved for one hour in FBS-free DMEM medium, treated with 5 mM EDTA for harvesting them without disrupting TfR1 located at cell surface, as trypsin does, washed 3 times with cold PBS and then labelled with anti-TfR1 antibodies (A24) (Moura et al., 2004) for 1 h on ice to avoid TfR1 internalization. In this condition, only membrane-bound TfR1 is quantified. Secondary staining was performed using Alexa fluor 488 goat anti-mouse antibody (Life technology) for 30 min on ice. Cells were washed and stained with Hoechst for 5 min in a total volume of 50 μl and acquisitions were directly performed. Cell analysis was based on Hoechst-positive signal, allowing to select living cells. […] Data were acquired using the INSPIRE software (Amnis Corp) and analyzed using the IDEAS™ software (version 6.2 Amnis Corp) on at least 20,000 events. […] Results were expressed as mean pixel intensity value which is the intensity normalized to surface area.

In assay [3] the test system is TfR1. The experiment in a line: Western blot of TfR1 steady-state level in fibroblasts. The note with it: for steady state level of TfR1: CoA 25 μM 72 h, DCA 5 mM 72 h, artesunate 25 μM 48 h. The method, then: as §1
(§3) Cultured skin fibroblasts were harvested on ice by scraping in reducing (2 μM dithiothreitol, DTT, denaturation at 95° C. for 5 min) or non-reducing cell lysis buffer (no DTT, no heat denaturation). Western bot analysis was performed on 20 μg of whole-cell protein extracts or mitochondrial-enriched fractions in 12% acrylamide gel or 4-15% gel gradient. Immunodetections were performed in PBS with 5% or 1% milk, 0.05% Tween20 (SIGMA) using the following antibodies: rabbit anti-SOD1 (Abcam, ab16831), rabbit anti-SOD2 (Abcam, ab13533), mouse anti-TfR1 (Invitrogen, 13-6800), rabbit anti-TfR1 (Abcam, 108985), rabbit anti-ferritin (Abcam, ab75973), rabbit anti-IRP1 (Abcam, ab126595), rabbit anti-IRP2 (Abcam, ab80339), rabbit anti-FBXL5 (Abcam, ab140175), rabbit anti-FDXR (Abcam, 204310), rabbit anti-FXN (Protein tech, 14147-1-AP), rabbit anti-PDH E2 subunit (Abcam, ab172617), rabbit anti-lipoic acid (Abcam, ab58724), goat anti-Biotin (Thermo, 31852), mouse anti-VDAC/Porine (Abcam, ab14734)
(§4) mouse anti-ATP5a (Abcam, ab14748), mouse anti-Vinculin (abeam, ab130007), rabbit anti-TFAM (Proteintech, 19998-1-AP), rabbit ATP8 (Proteintech, 26723-1-AP) and mouse anti-GAPDH antibodies (ab8245). Blots were incubated with fluorescent secondary antibodies (IRDye 800CW/680LT Goat anti-rabbit or anti-mouse IgG (LI-COR)) or HRP-conjugated secondary antibodies (goat anti-rabbit IgG HRP (Abcam), goat anti-mouse IgG HRP (Abcam) or donkey anti-goat IgG HRP (Santa Cruz)) before ECL-based detection (SuperSignal West Dura, Thermo Scientific). Signals captured either with the Odyssey Infrared Imaging System using Image Studio Lite v5.2 (LI-COR Biosciences) or with CDD camera using Image Lab v3.0 (BioRad).

Assay [4] concerns fibroblasts (cellular iron content). The experiment in a line: Ferrozine-based iron quantification in fibroblasts. The note with it: for iron content: control cells. The method, then: as §1
Total iron contents were measured using a ferrozine-based iron assay modified from (Barbeito et al., 2010). For imaging flow cytometry, fibroblasts were starved for one hour in FBS-free DMEM medium, treated with 5 mM EDTA for harvesting them without disrupting TfR1 located at cell surface, as trypsin does, washed 3 times with cold PBS and then labelled with anti-TfR1 antibodies (A24) (Moura et al., 2004) for 1 h on ice to avoid TfR1 internalization. In this condition, only membrane-bound TfR1 is quantified. Secondary staining was performed using Alexa fluor 488 goat anti-mouse antibody (Life technology) for 30 min on ice. Cells were washed and stained with Hoechst for 5 min in a total volume of 50 μl and acquisitions were directly performed. Cell analysis was based on Hoechst-positive signal, allowing to select living cells. Samples were run on an Imagestream ISX mkII (Amnis Corp, Millipore, Seattle, WA) that combines flow cytometry with detailed cell-imaging and functional studies and a 40× magnification was used for all acquisitions. Data were acquired using the INSPIRE software (Amnis Corp) and analyzed using the IDEAS™ software (version 6.2 Amnis Corp) on at least 20,000 events. Spectral compensation was performed using singly stained samples. A specific mask was designed for analysis of the membrane localization of TfR1. This mask was the result of a full bright field mask minus a 5 pixels erode and 1 pixel dilate bright mask resulting in doughnuts-like mask. Results were expressed as mean pixel intensity value which is the intensity normalized to surface area.

The test system of assay [5] is PBMC (iron content). Kind of assay: Ferrozine-based iron quantification in PBMC grown in high iron medium. Particulars: 40 h in high iron medium (100 μM FAC), artesunate 25 μM. On the procedure:
PBMC were isolated from 8 ml blood samples by density centrifugation using Ficoll (GE Healthcare) and grown 2 h in regular DMEM before treatment with 100 μM FAC for different time.
as §2

In assay [6] the test system is ferritin, FBXL5, SOD2, IRP1-2. The experiment in a line: Western blot of proteins involved in iron homeostasis and antioxidant defense in fibroblasts. Particulars: artesunate 25 μM for 48 h. On the procedure:
as §1, §3, §4
(In western blotting, separated proteins are transferred to a membrane and probed.)

The subject of assay [7] is fibroblasts (Tf recycling). Kind of assay: Transferrin (Tf) recycling by spinning-disk confocal microscopy in fibroblasts. The method, then: as §1
For Tf recycling, fibroblasts were spread at 30% confluence onto micro-slides glass bottom (IBIDI) 24 h before experiment. Cells were then starved in FBS-free DMEM media for 1 h before add Tf-RED (12.5 μg/mL) for 30 min at 37° C. Cells were washed with PBS and then incubated for in regular media for live-imaging acquisition using spinning disk confocal microscopy (ZEISS Microscopy). Slides were placed un incubation chamber at 37° C. under 5% CO2. At least 20 cells were acquired by condition using 63× oil immersion objective lens with a picture of cell/min during 40 min using Zen software. The nuclear region (NR) was defined using Icy software v1.9. […] PNROI masks were then applied on RED channel by spot detector plugin to obtain quantitative mean fluorescence particle intensity. […]

Where [8] appears, read: FRDA fibroblasts, artesunate 25 μM for 48 h.
The mark [9] stands for this setting: control cells, artesunate 25 μM for 48 h.

Consider `CC(C)(COP(=O)(O)OP(=O)(O)OC[C@H]1O[C@@H](n2cnc3c(N)ncnc32)[C@H](O)[C@@H]1OP(=O)(O)O)[C@@H](O)C(=O)NCCC(=O)NCCS` [CoA, [[(2R,3S,4R,5R)-5-(6-aminopurin-9-yl)-4-hydroxy-3-phosphonooxyoxolan-2-yl]methoxy-hydroxyphosphoryl][(3R)-3-hydroxy-2,2-dimethyl-4-oxo-4-[[3-oxo-3-(2-sulfanylethylamino)propyl]amino]butyl]hydrogen phosphate], for which, in assay [1] (FRDA fibroblasts, CoA 25 μM for 72 h), the “increase of TfR1 palmitoylation” value fell in the range of 2.1 to 3.2 fold. Also, the “membrane TfR1 accumulation” value in assay [2] (summary statement in discussion, conditions not given) is given as “reduced”. In addition, the “steady state level of TfR1” value in assay [3] (FRDA fibroblasts) is given as “decreased”. Also, the “decrease of cellular iron content” value in assay [4] (FRDA fibroblasts, high iron conditions (+FAC), CoA 25 μM for 72 h) is 1.6-2.4 fold.

For `C[C@H]1[C@H](OC(=O)CCC(=O)O)O[C@@H]2O[C@@]3(C)CC[C@H]4[C@H](C)CC[C@@H]1[C@@]24OO3` [artesunate, (3R,5aS,6R,8aS,9R,10S,12R,12aR)-Decahydro-3,6,9-trimetyl-3,12-epoxy-12H-pyrano[4,3-j]-1,2-benzodioxepin-10-ol, hydrogen succinate], the “iron content of PBMC” value in assay [5] (FRDA PBMCs) and in assay [5] (control PBMCs) was “two-fold decrease” in each case. In assay [1] (setting [8]), the “TfR1 palmitoylation relative to controls” value is reported as 80 % of controls. Besides, in assay [1] (control cells, artesunate treatment), the TfR1 palmitoylation entry is listed as “slight but non-significant decrease”. For the same compound, the “FBXL5 steady state level” value is recorded as “returned to control values” in assay [6] (FRDA fibroblasts) and “not modified” in assay [6] (control cells). Besides, the “IRP1-2 steady state levels” value in assay [6] (FRDA fibroblasts) is recorded as “not modified”. The “SOD2 steady state level” value in assay [6] (FRDA fibroblasts) is reported as “decreased”. Besides, the “ferritin steady state level” value is on record as “returned to control values” in assay [6] (FRDA fibroblasts) and “not modified” in assay [6] (control cells). For the same compound, in assay [7] (setting [8]), the “Tf recycling (Tf-Alexa555 signal)” value is “complete rescue”. Further, the Tf recycling result in assay [7] (control cells treated with artesunate) was “slight delay”. Moreover, in assay [2] (setting [8]), the “decrease of membrane TfR1” value is given as 15-30%. In addition, in assay [2] (setting [9]), the “increase of membrane TfR1” value lay in the range of 1.1 to 1.3 fold. Further, the “TfR1 steady-state level relative to control values in artesunate-free medium” value in assay [3] (FRDA fibroblasts, regular DMEM, artesunate 25 μM for 48 h) is recorded as 136 % of control values. Moreover, the “steady state level of TfR1” value in assay [3] (FRDA fibroblasts) is on record as “significantly decreased”. Also, the TfR1 steady-state level entry in assay [3] (setting [9]) is “slight increase”. For the same compound, the “cellular iron content relative to initial cellular iron content” value in assay [4] (FRDA fibroblasts, basal conditions, artesunate 25 μM for 48 h) was 62-79 % of initial cellular iron content. For the same compound, the “decrease of cellular iron content” value in assay [4] (FRDA fibroblasts, high iron condition (100 μM FAC), 25 μM artesunate for 48 h) is on record as 71-79%. For the same compound, the iron content result in assay [4] (basal conditions, artesunate 25 μM for 48 h) is on record as “light but non-significant increase”; in assay [4] (high iron conditions (100 μM FAC), 25 μM artesunate), “decreased”.
